Experimental data reported in ChEMBL document CHEMBL1139191, “Discovery and biological evaluation of adamantyl amide 11beta-HSD1 inhibitors” (Bioorg Med Chem Lett, 2007).
pIC50: −log10 of the molar value.

Experiments:
[1] = target: 11-beta-hydroxysteroid dehydrogenase 1 (Homo sapiens, UniProt P28845); assay: Inhibition of human 11beta-HSD1 expressed in HEK293 cells after 2 hrs by scintillation proximity assay; type: cell-based
[2] = target: T1, 11-beta-hydroxysteroid dehydrogenase type 2 (Homo sapiens) (UniProt P80365); assay: Inhibition of human 11beta-HSD2 at 10 uM by scintillation proximity assay
T1 sequence (whole entry): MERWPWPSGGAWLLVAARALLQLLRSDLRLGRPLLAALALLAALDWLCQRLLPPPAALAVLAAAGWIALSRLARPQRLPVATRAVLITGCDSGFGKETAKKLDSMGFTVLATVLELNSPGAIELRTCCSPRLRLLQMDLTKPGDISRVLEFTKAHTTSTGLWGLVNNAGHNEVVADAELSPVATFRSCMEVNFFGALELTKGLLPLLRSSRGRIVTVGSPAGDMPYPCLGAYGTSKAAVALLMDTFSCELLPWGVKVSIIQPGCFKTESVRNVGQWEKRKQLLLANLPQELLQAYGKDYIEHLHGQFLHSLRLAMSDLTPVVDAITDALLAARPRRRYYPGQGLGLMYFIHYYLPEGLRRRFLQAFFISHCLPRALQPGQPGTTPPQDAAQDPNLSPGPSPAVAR

[3] = target: 11-beta-hydroxysteroid dehydrogenase 1 (Mus musculus, UniProt P50172); assay: Inhibition of mouse 11beta-HSD1 expressed in CHO cells after 4 hrs by scintillation proximity assay; type: cell-based
Chain of 11-beta-hydroxysteroid dehydrogenase 1 (Mus musculus, UniProt P50172) (P50172 whole entry): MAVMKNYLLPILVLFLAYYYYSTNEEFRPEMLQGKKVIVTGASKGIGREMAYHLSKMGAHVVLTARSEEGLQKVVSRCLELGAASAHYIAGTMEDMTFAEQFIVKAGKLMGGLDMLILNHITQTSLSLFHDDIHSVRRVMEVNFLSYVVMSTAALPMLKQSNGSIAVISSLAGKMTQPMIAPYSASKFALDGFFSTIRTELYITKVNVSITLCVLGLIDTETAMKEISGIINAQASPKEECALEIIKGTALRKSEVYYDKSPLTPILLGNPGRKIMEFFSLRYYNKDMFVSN

Mus musculus [4] = assay: Inhibition of HSD1 in C57BL/6 mouse liver at 10 mg/kg, ip; type: functional; details: C57BL/6, Liver, route intraperitoneal
Mus musculus [5] = assay: Inhibition of HSD1 in C57BL/6 mouse adipose tissue at 10 mg/kg, ip; type: functional; details: C57BL/6, Adipose tissue, route intraperitoneal
Mus musculus [6] = assay: Inhibition of HSD1 in C57BL/6 mouse brain at 10 mg/kg, ip; type: functional; details: C57BL/6, Brain, route intraperitoneal
Mus musculus [7] = assay: Inhibition of HSD1 in C57BL/6 mouse kidney at 10 mg/kg, ip; type: functional; details: C57BL/6, Kidney, route intraperitoneal

Chain of 11-beta-hydroxysteroid dehydrogenase 1 (Homo sapiens, UniProt P28845) (P28845 whole entry): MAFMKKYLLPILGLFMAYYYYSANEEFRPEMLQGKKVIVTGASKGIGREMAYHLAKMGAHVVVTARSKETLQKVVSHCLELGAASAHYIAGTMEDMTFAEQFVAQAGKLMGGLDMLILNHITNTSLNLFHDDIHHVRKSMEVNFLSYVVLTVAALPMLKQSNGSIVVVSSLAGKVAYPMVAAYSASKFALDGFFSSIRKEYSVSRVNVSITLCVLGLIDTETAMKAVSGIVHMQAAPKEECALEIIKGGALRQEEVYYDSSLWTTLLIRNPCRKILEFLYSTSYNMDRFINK

Compound | pIC50 [1] | inhibition [2] [%] | also measured
O=C(N1CCc2ccccc2C1)C12CC3CC(CC(C3)C1)C2 | 5.25 | – | –
O=C(N1CCN(Cc2ccncc2)CC1)C12CC3CC(CC(C3)C1)C2 | 5.14 | 0 | –
CCN1CCN(C(=O)CC23CC4CC(CC(C4)C2)C3)CC1 | 5.39 | 1 | –
CCN1CCN(C(=O)C2CC3CCC2C3)CC1 (stereo not given) | 4.36 | 0 | –
Cc1ccc(C23CC4CC(CC(C(=O)N5CCN(S(=O)(=O)c6ccccc6)CC5)(C4)C2)C3)cc1 | 4.19 | 48 | –
Cc1ccc(C23CC4CC(CC(C(=O)N5CCN(CCc6ccccc6)CC5)(C4)C2)C3)cc1 | 5.72 | 53 | –
CCN1CCN(C(=O)CCC2CCCCC2)CC1 | 4.32 | 0 | –
O=C(N1CCCC1)C12CC3CC(CC(C3)C1)C2 | 6.30 | 37 | –
CCN1CCN(C(=O)C2=C(C)c3ccccc3C2)CC1 | 4.82 | 0 | –
O=C(N1CCN(c2ccccc2)CC1)C12CC3CC(CC(C3)C1)C2 | < 4.00 | 0 | –
Cc1ccc(C23CC4CC(CC(C(=O)N5CCN(c6ccccc6)CC5)(C4)C2)C3)cc1 | 5.14 | – | –
O=C(N1CCN(CCO)CC1)C12CC3CC(CC(C3)C1)C2 | 5.83 | 31 | pIC50 [3]: 6.31
O=C(N1CCN(S(=O)(=O)Cc2ccccc2)CC1)C12CC3CC(CC(C3)C1)C2 | 4.89 | 39 | –
CCN1CCN(C(=O)C2CC2)CC1 | < 4.00 | 0 | –
Cc1ccc(C23CC4CC(CC(C(=O)N5CCN(C)CC5)(C4)C2)C3)cc1 | 7.10 | 0 | pIC50 [3]: 7.09; inhibition in vivo at 10 mg/kg (Mus musculus [4]): 63%; inhibition in vivo at 10 mg/kg (Mus musculus [5]): 54%; inhibition in vivo at 10 mg/kg (Mus musculus [6]): 39%; inhibition in vivo at 10 mg/kg (Mus musculus [7]): 0%
CCN1CCN(C(=O)Cc2ccccc2)CC1 | 5.14 | 11 | –
N#CC(c1ccccc1)N1CCN(C(=O)C23CC4CC(CC(C4)C2)C3)CC1 (stereo not given) | 4.62 | 39 | –
CN1CCN(C(=O)C23CC4CC(CC(C4)C2)C3)CC1 | 6.15 | 13 | –
O=C(N1CCN(S(=O)(=O)c2ccccc2)CC1)C12CC3CC(CC(C3)C1)C2 | < 4.00 | 35 | –
CCN1CCN(C(=O)C2CCC(C(C)(C)C)CC2)CC1 (stereo not given) | 4.70 | 0 | pIC50 [3]: 5.92
O=C(N1CCCc2ccccc21)C12CC3CC(CC(C3)C1)C2 | 5.73 | 0 | pIC50 [3]: 6.32
O=C(N1CCN(Cc2ccccc2)CC1)C12CC3CC(CC(C3)C1)C2 | 5.14 | 7 | –
Cc1ccc(C23CC4CC(CC(C(=O)N5CCN(Cc6ccccc6)CC5)(C4)C2)C3)cc1 | 5.82 | 80 | –
CCN1CCN(C(=O)CC2CCCCC2)CC1 | < 4.00 | 40 | –

Compound | pIC50 [1] | inhibition [2] [%] | also measured
O=C(N1CCNCC1)C12CC3CC(CC(C3)C1)C2 | 5.09 | 31 | –
O=C(c1ccccc1)N1CCN(C(=O)C23CC4CC(CC(C4)C2)C3)CC1 | < 4.00 | 20 | –
Cc1ccc(C23CC4CC(CC(C(=O)N5CCN(C(=O)c6ccccc6)CC5)(C4)C2)C3)cc1 | 4.44 | 0 | –
O=C(N1CCC2CCCCC2C1)C12CC3CC(CC(C3)C1)C2 (stereo not given) | 6.07 | 0 | pIC50 [3]: 6.64
Cc1ccc(C23CC4CC(CC(C(=O)N5CCN(S(=O)(=O)Cc6ccccc6)CC5)(C4)C2)C3)cc1 | 5.11 | 26 | –
O=C(C1C2CC3CC(C2)CC1C3)N1CCCCC1 (stereo not given) | 6.70 | 39 | –
Cc1ccc(C23CC4CC(CC(C(=O)N5CCN(CCO)CC5)(C4)C2)C3)cc1 | 6.30 | 40 | pIC50 [3]: 7.37
Cc1ccc(C23CC4CC(CC(C(=O)N5CCN(C(C#N)C(C)C)CC5)(C4)C2)C3)cc1 (stereo not given) | 5.00 | 56 | –
CCN1CCN(C(=O)C2(c3ccc(F)cc3)CCCC2)CC1 | 4.92 | 0 | –
O=C(N1CCCCC1)C12CC3CC(CC(C3)C1)C2 | 6.71 | 0 | pIC50 [3]: 6.87
CCN1CCN(C(=O)c2ccccc2)CC1 | < 4.00 | 0 | –
Cc1ccc(C23CC4CC(CC(C(=O)N5CCN(Cc6ccncc6)CC5)(C4)C2)C3)cc1 | 5.09 | 0 | –
CCN1CCN(C(=O)C23CC4CC(CC(O)(C4)C2)C3)CC1 | 4.28 | – | –
CCN1CCN(C(=O)C2CCCCC2)CC1 | 4.28 | 0 | –
CCN1CCN(C(=O)C23CC4CC(CC(Cc5ccccc5)(C4)C2)C3)CC1 | 6.00 | 0 | –
COCCN1CCN(C(=O)C23CC4CC(CC(C4)C2)C3)CC1 | 4.92 | 7 | –
CCN1CCN(C(=O)C(C)(C)C)CC1 | < 4.00 | 0 | –
CCN1CCN(C(=O)C23CC4CC(CC(C4)C2)C3)CC1 | 6.12 | 11 | pIC50 [3]: 6.52
CC(C)C(C#N)N1CCN(C(=O)C23CC4CC(CC(C4)C2)C3)CC1 (stereo not given) | 4.70 | 45 | –
CCN1CCN(C(=O)C23CC4CC(C2)CC(c2ccc(OC)cc2)(C4)C3)CC1 | 6.22 | 51 | –
O=C(N1CCN(CCc2ccccc2)CC1)C12CC3CC(CC(C3)C1)C2 | 4.33 | 0 | –
Cc1ccc(C23CC4CC(CC(C(=O)N5CCN(C(C#N)c6ccccc6)CC5)(C4)C2)C3)cc1 (stereo not given) | 5.68 | 48 | –
O=C(N1CCCCC1)C12CC3CC(CC(O)(C3)C1)C2 | 5.14 | 9 | –
COCCN1CCN(C(=O)C23CC4CC(C2)CC(c2ccc(C)cc2)(C4)C3)CC1 | 5.68 | 41 | –
